{"source": "patent US20260256792A1", "about": "“TREATMENT OF CHRONIC SPONTANEOUS URTICARIA BY ADMINISTERING (R)-2-[3-[4-AMINO-3-(2-FLUORO-4-PHENOXY-PHENYL)PYRAZOLO[3,4-D]PYRIMIDIN-1-YL]PIPERIDINE-1-CARBONYL]-4-METHYL-4-[4-(OXETAN-3-YL)PIPERAZIN-1-YL]PENT-2-ENENITRILE” (priority 2023, published 2026)", "test_system": "moderate-to-severe chronic spontaneous urticaria (CSU)", "assay": "Phase 2 CSU study: Patient Global Impression of Change (PGIC)", "type": "in vivo, human", "conditions": "for PGIC Mean (SD) / PGIC Median / PGIC category A little better, patients / PGIC category A little worse, patients / PGIC category Moderately better, patients / PGIC category Moderately worse, patients / PGIC category No change, patients / PGIC category Very much better, patients / PGIC category Very much worse, patients: omalizumab-naïve population; for PGIC LS Mean (SE) / PGIC LS Mean Diff vs. placebo (95% CI): omalizumab-naïve, ANCOVA", "text": "The study comprises a 12 week, randomized, double-blind, placebo-controlled, multi-center, dose-ranging efficacy and safety phase, followed by a 40 week open label extension (OLE) phase (see FIG. 1).\nThe study consists of three phases and an optional OLE phase.\nThe PGIS is a 1-item measure that asks participants to provide a self-assessment of their overall CSU severity for the past week on a 4 point scale. Response choices are: “None”, “Mild”, “Moderate” and “Severe”. The PGIC is a 1-item measure that asks the participant to provide a self-assessment of overall change in their CSU since the participant started taking the study medication on a 7-point scale. The response options range from “Very Much Better” to “Very Much Worse.” Patients were to complete questionnaires for the 2 items during their site visit."}
{"smiles": "CC(C)(C=C(C#N)C(=O)N1CCC[C@@H](n2nc(-c3ccc(Oc4ccccc4)cc3F)c3c(N)ncnc32)C1)N1CCN(C2COC2)CC1", "note": "[rilzabrutinib, (R)-2-[3-[4-amino-3-(2-fluoro-4-phenoxy-phenyl)pyrazolo[3,4-d]pyrimidin-1-yl]piperidine-1-carbonyl]-4-methyl-4-[4-(oxetan-3-yl)piperazin-1-yl]pent-2-enenitrile]", "values": [{"measurement": "quality of life as measured by PGIC", "setting": "400 mg TID", "value": "improvement"}, {"measurement": "PGIC Mean (SD)", "setting": "Week 2, 400 mg BID", "value": 1.61}, {"measurement": "PGIC Median", "setting": "Week 2, 400 mg BID", "value": 1.00}, {"measurement": "PGIC category A little better, patients", "setting": "Week 2, 400 mg BID", "value": "6 (19.4)"}, {"measurement": "PGIC category A little worse, patients", "setting": "Week 2, 400 mg BID", "value": "1 (3.2)"}, {"measurement": "PGIC category Moderately better, patients", "setting": "Week 2, 400 mg BID", "value": "5 (16.1)"}, {"measurement": "PGIC category Moderately worse, patients", "setting": "Week 2, 400 mg BID", "value": "1 (3.2)"}, {"measurement": "PGIC category No change, patients", "setting": "Week 2, 400 mg BID", "value": "6 (19.4)"}, {"measurement": "PGIC category Very much better, patients", "setting": "Week 2, 400 mg BID", "value": "11 (35.5)"}, {"measurement": "PGIC category Very much worse, patients", "setting": "Week 2, 400 mg BID", "value": "1 (3.2)"}, {"measurement": "PGIC LS Mean (SE)", "setting": "Week 2, 400 mg BID", "value": 1.53}, {"measurement": "PGIC LS Mean Diff vs. placebo (95% CI)", "setting": "Week 2, 400 mg BID", "value": "−0.81"}, {"measurement": "PGIC Mean (SD)", "setting": "Week 2, 400 mg QPM", "value": 2.33}, {"measurement": "PGIC Median", "setting": "Week 2, 400 mg QPM", "value": 3.00}, {"measurement": "PGIC category A little better, patients", "setting": "Week 2, 400 mg QPM", "value": "7 (21.2)"}, {"measurement": "PGIC category A little worse, patients", "setting": "Week 2, 400 mg QPM", "value": "1 (3.0)"}, {"measurement": "PGIC category Moderately better, patients", "setting": "Week 2, 400 mg QPM", "value": "5 (15.2)"}, {"measurement": "PGIC category Moderately worse, patients", "setting": "Week 2, 400 mg QPM", "value": 0}, {"measurement": "PGIC category No change, patients", "setting": "Week 2, 400 mg QPM", "value": "16 (48.5)"}, {"measurement": "PGIC category Very much better, patients", "setting": "Week 2, 400 mg QPM", "value": "3 (9.1)"}, {"measurement": "PGIC category Very much worse, patients", "setting": "Week 2, 400 mg QPM", "value": "1 (3.0)"}, {"measurement": "PGIC LS Mean (SE)", "setting": "Week 2, 400 mg QPM", "value": 2.12}, {"measurement": "PGIC LS Mean Diff vs. placebo (95% CI)", "setting": "Week 2, 400 mg QPM", "value": "−0.22"}, {"measurement": "PGIC Mean (SD)", "setting": "Week 2, 400 mg TID", "value": 1.42}, {"measurement": "PGIC Median", "setting": "Week 2, 400 mg TID", "value": 1.00}, {"measurement": "PGIC category A little better, patients", "setting": "Week 2, 400 mg TID", "value": "7 (21.2)"}, {"measurement": "PGIC category A little worse, patients", "setting": "Week 2, 400 mg TID", "value": 0}, {"measurement": "PGIC category Moderately better, patients", "setting": "Week 2, 400 mg TID", "value": "7 (21.2)"}, {"measurement": "PGIC category Moderately worse, patients", "setting": "Week 2, 400 mg TID", "value": "1 (3.0)"}, {"measurement": "PGIC category No change, patients", "setting": "Week 2, 400 mg TID", "value": "5 (15.2)"}, {"measurement": "PGIC category Very much better, patients", "setting": "Week 2, 400 mg TID", "value": "12 (36.4)"}, {"measurement": "PGIC category Very much worse, patients", "setting": "Week 2, 400 mg TID", "value": "1 (3.0)"}, {"measurement": "PGIC LS Mean (SE)", "setting": "Week 2, 400 mg TID", "value": 1.43}, {"measurement": "PGIC LS Mean Diff vs. placebo (95% CI)", "setting": "Week 2, 400 mg TID", "value": "−0.91"}, {"measurement": "PGIC Mean (SD)", "setting": "Week 4, 400 mg BID", "value": 1.67}, {"measurement": "PGIC Median", "setting": "Week 4, 400 mg BID", "value": 1.00}, {"measurement": "PGIC category A little better, patients", "setting": "Week 4, 400 mg BID", "value": "6 (18.2)"}, {"measurement": "PGIC category A little worse, patients", "setting": "Week 4, 400 mg BID", "value": "2 (6.1)"}, {"measurement": "PGIC category Moderately better, patients", "setting": "Week 4, 400 mg BID", "value": "8 (24.2)"}, {"measurement": "PGIC category Moderately worse, patients", "setting": "Week 4, 400 mg BID", "value": 0}, {"measurement": "PGIC category No change, patients", "setting": "Week 4, 400 mg BID", "value": "7 (21.2)"}, {"measurement": "PGIC category Very much better, patients", "setting": "Week 4, 400 mg BID", "value": "9 (27.3)"}, {"measurement": "PGIC category Very much worse, patients", "setting": "Week 4, 400 mg BID", "value": "1 (3.0)"}, {"measurement": "PGIC LS Mean (SE)", "setting": "Week 4, 400 mg BID", "value": 1.59}, {"measurement": "PGIC LS Mean Diff vs. placebo (95% CI)", "setting": "Week 4, 400 mg BID", "value": "−0.49"}, {"measurement": "PGIC Mean (SD)", "setting": "Week 4, 400 mg QPM", "value": 2.24}, {"measurement": "PGIC Median", "setting": "Week 4, 400 mg QPM", "value": 2.00}, {"measurement": "PGIC category A little better, patients", "setting": "Week 4, 400 mg QPM", "value": "10 (29.4)"}, {"measurement": "PGIC category A little worse, patients", "setting": "Week 4, 400 mg QPM", "value": "5 (14.7)"}, {"measurement": "PGIC category Moderately better, patients", "setting": "Week 4, 400 mg QPM", "value": "4 (11.8)"}, {"measurement": "PGIC category Moderately worse, patients", "setting": "Week 4, 400 mg QPM", "value": "1 (2.9)"}, {"measurement": "PGIC category No change, patients", "setting": "Week 4, 400 mg QPM", "value": "7 (20.6)"}, {"measurement": "PGIC category Very much better, patients", "setting": "Week 4, 400 mg QPM", "value": "6 (17.6)"}, {"measurement": "PGIC category Very much worse, patients", "setting": "Week 4, 400 mg QPM", "value": "1 (2.9)"}, {"measurement": "PGIC LS Mean (SE)", "setting": "Week 4, 400 mg QPM", "value": 2.06}, {"measurement": "PGIC LS Mean Diff vs. placebo (95% CI)", "setting": "Week 4, 400 mg QPM", "value": "−0.02"}, {"measurement": "PGIC Mean (SD)", "setting": "Week 4, 400 mg TID", "value": 1.14}, {"measurement": "PGIC Median", "setting": "Week 4, 400 mg TID", "value": 1.00}, {"measurement": "PGIC category A little better, patients", "setting": "Week 4, 400 mg TID", "value": "6 (20.7)"}, {"measurement": "PGIC category A little worse, patients", "setting": "Week 4, 400 mg TID", "value": "1 (3.4)"}, {"measurement": "PGIC category Moderately better, patients", "setting": "Week 4, 400 mg TID", "value": "5 (17.2)"}, {"measurement": "PGIC category Moderately worse, patients", "setting": "Week 4, 400 mg TID", "value": 0}, {"measurement": "PGIC category No change, patients", "setting": "Week 4, 400 mg TID", "value": "4 (13.8)"}, {"measurement": "PGIC category Very much better, patients", "setting": "Week 4, 400 mg TID", "value": "13 (44.8)"}, {"measurement": "PGIC category Very much worse, patients", "setting": "Week 4, 400 mg TID", "value": 0}, {"measurement": "PGIC LS Mean (SE)", "setting": "Week 4, 400 mg TID", "value": 1.18}, {"measurement": "PGIC LS Mean Diff vs. placebo (95% CI)", "setting": "Week 4, 400 mg TID", "value": "−0.90"}, {"measurement": "PGIC Mean (SD)", "setting": "Week 8, 400 mg BID", "value": 1.42}, {"measurement": "PGIC Median", "setting": "Week 8, 400 mg BID", "value": 1.00}, {"measurement": "PGIC category A little better, patients", "setting": "Week 8, 400 mg BID", "value": "3 (9.1)"}, {"measurement": "PGIC category A little worse, patients", "setting": "Week 8, 400 mg BID", "value": "1 (3.0)"}, {"measurement": "PGIC category Moderately better, patients", "setting": "Week 8, 400 mg BID", "value": "8 (24.2)"}]}
